According to patent US20230121771A1, “A PHARMACEUTICAL COMBINATION OF AN ARTEMISININ COMPOUND, 5-AMINOLEVULINIC ACID OR METHYL-5-AMINOLEVULINIC ACID AND A CHEMOTHERAPEUTIC AGENT” (JLP Health GmbH, priority 2020, published 2023):

How the values were obtained:
Format in all cases: cell-based
glioblastoma cell lines = assay: 6-day cell survival assay (Cell Titer Glo 2.0), glioblastoma cell lines; details: 6-day treatment
Method: Cell survival assays (FIGS. 12-19) were performed in 96-well plates in technical duplicates. Treatments started 24 hours post cell plating and lasted for 6-days prior to cell viability assessment with the Cell Titer Glo 2.0 Luminescent assay (Promega, G9242).

[1] = tested on: human glioblastoma-like neoplastic organoid model; assay: Compound profiling in human glioblastoma-like neoplastic organoid model (p53, NF1, PTEN mutated); details: compound alone
Method: Tumor initiation was induced by either oncogene amplification, using a Sleeping Beauty (SB) transposase, or mutation of tumor suppressor genes, using the CRISPR-Cas9 system in day 10 old embryoid bodies (EBs). Plasmids carrying the transposase as well as GFP and the desired oncogenes or expressing Cas9 nuclease were introduced by electroporation. In brief, a mixture of 1 μg DNA and 100 μl nucleofector solution was added to 10 EBs and transferred to a nucleofection cuvette. The Lonza Nucleofector 2b and the A-023 program were used for electroporation/ nucleofection. […] Cerebral tumor organoids were treated with different compounds and the survival and growth of transformed as well as untransformed neurons was monitored. Fluorescence labeling of tumor cells allowed clear distinguishability of transformed cells as compared to non-labeled throughout the experiment using brightfield microscopy, as well as fluorescence imaging. The transformed tumor tissue and untransformed neurons within the same organoid was monitored using fluorescence imaging, as well as brightfield microscopy throughout the experiment. At the endpoint of the treatment (d5 or d7 respectively), the number of GFP-positive cells was assessed by flow cytometry. […] Brightfield and green fluorescence images were taken from the same area. […]

[2] = tested on: human cerebral tumor organoids (CNS-PNET); assay: Compound profiling in CNS-PNET cerebral tumor organoids (GFP-positive tumor cells)
Method: Tumor initiation was induced by either oncogene amplification, using a Sleeping Beauty (SB) transposase, or mutation of tumor suppressor genes, using the CRISPR-Cas9 system in day 10 old embryoid bodies (EBs). Plasmids carrying the transposase as well as GFP and the desired oncogenes or expressing Cas9 nuclease were introduced by electroporation. In brief, a mixture of 1 μg DNA and 100 μl nucleofector solution was added to 10 EBs and transferred to a nucleofection cuvette. The Lonza Nucleofector 2b and the A-023 program were used for electroporation/ nucleofection. Thereafter, EBs were transferred into 10 cm dishes containing differentiation media containing vitamin A and embedded into Matrigel 24 hours later. Two different types of tumors were initiated {Bian:2018gs}: Central nervous system primitive neuroectodermal tumors (CNS-PNET) were induced by the overexpression of Myc. Glioblastoma-like tumor group 2 (GBM-2) was caused by mutagenesis of the tumor suppressor genes p53, NF1 and PTEN. All plasmids were designed by Shan Bian {Bian, S. et al. Genetically engineered cerebral organoids model brain tumor formation. Nat. Methods 15, 631-639 (2018)}. Cerebral tumor organoids were treated with different compounds and the survival and growth of transformed as well as untransformed neurons was monitored. Fluorescence labeling of tumor cells allowed clear distinguishability of transformed cells as compared to non-labeled throughout the experiment using brightfield microscopy, as well as fluorescence imaging. The transformed tumor tissue and untransformed neurons within the same organoid was monitored using fluorescence imaging, as well as brightfield microscopy throughout the experiment. At the endpoint of the treatment (d5 or d7 respectively), the number of GFP-positive cells was assessed by flow cytometry. Cerebral (tumor) organoids were enzymatically and mechanically dissociated using 1x trypsin, 35-45 min incubation at 37° C., and gentle shaking. […] Single cells in suspension were counterstained with DAPI or a viability dye (eBioscienceTM Fixable Viability Dye eFluorTM 780, 65-0865-18), and analysed using flow cytometry (BD LSRFortessa HTS Cell Analyzer). The amounts of GFP-positive cells were analyzed. […] Brightfield and green fluorescence images were taken from the same area. Additionally, for image analyses, the Celldiscoverer 7 (Zeiss), a fully integrated high-end automated live cell imaging system, was used. Cerebral organoids were fixed in 4% PFA (room temperature, 1 h), incubated with 30% sucrose (4° C., o/n), OCT (Tissue-tek OCT Compound, […], 4583) embedded and 20 μm sections were cryostat cut (-12/-14° C.). […] Fluorescence Mounting Medium (Dako, S302380) was used for mounting the sample slides. […]

[3] = tested on: neuroblastoma cells (SHSY5Y), Jurkat and HL-60 cells; assay: ROS levels by Dihydroethidium (DHE) staining and flow cytometry in cell lines; details: SHSY5Y and Jurkat cells; artemisinin 0.5 µM, 5-ALA 0.25 mM
Method: Treated cells were collected, washed with 1x HBSS (without Ca2+ and Mg2+), incubated with 1mM DHE (Dihydroethidium (Hydroethidine), Invitrogen, D11347) in 1x HBSS for 45 min at 37° C., washed twice and counterstained with DAPI or a viability dye (eBioscience™ Fixable Viability Dye eFluor™ 780, 65-0865-18) for 10 min on ice. Cells were then collected, strained and analysed using flow cytometry for DHE in the red fluorescent spectrum (PE channel).

[4] = tested on: murine and human cancer cell lines; assay: Cell viability of artemisinin treated cancer cell lines in presence and absence of 5-ALA (Alamar Blue, 48 h); details: 4T1, Mcf7, B16F10, 5-ALA 0.5 mM
Method: For dosage responses, cells were seeded in 96-wells (25.000/ 96-well, in triplicate -where indicated) and subjected to compounds for 48 h. Cell viability was assessed using automated cell counting (high-throughput flow cytometry), Alamar Blue staining (Invitrogen, DAL1100) or CellTiter-Glo Luminescent Assay (Promega, G7570, according to the manufacturer’s protocol) respectively.

NCC(=O)CCC(=O)O [5-ALA, 5-amino-4-oxopentanoic acid]
cell survival compared to untreated controls (glioblastoma cell lines): more potent than Methyl-5-ALA | survival of untransformed and transformed cells [1]: little effect on the survival of untransformed cells as well as transformed cells | GFP+ tumor tissue, immunohistochemistry of sectioned organoids [2]: losss of GFP+ tumor tissue | effect on non-transformed neuronal tissues in the cerebral organoids ([2]; Sox2 expressing cells, rosette-like structures): no apparent effect on the non-transformed neuronal tissues | growth of GFP-positive tumor organoids ([2]; very high concentrations, compound alone): notable growth inhibition | ROS levels (DHE staining, MFI) [3]: triggered ROS | sensitivity to artemisinin under combinatorial treatment with 5-ALA [4]: gained hypersensitive to artemisinin
